For 26 compounds, ring closure, isolated yield and IC50 results are on record in patent publication US11053258B2, “Pyrimidine carboxamides as GSK-3 inhibitors” (BRISTOL-MYERS SQUIBB COMPANY, priority 2016, dated 2021).

SMILES strings stand for the structures. “And” between values parts separate entries of the source, which are not always exact repeats. Identical values can stand only once. Like-named read-outs stand apart in the source and are kept apart here.

The conditions of data set [1]: rcm bond, 70.0 °C.
In a further data set the target is GSK3β (Homo sapiens, UniProt P49841). Briefly: GSK3β kinase assay (Caliper LabChip3000, fluoresceinated peptide substrate). Conditions: first value of cell; 250 pM enzyme, 20 uM ATP, 20 hours room temperature; read-out: GSK3β/α (nM): GSK3β IC50. It counts as biochemical. The method, then: (§1) The kinase assay was performed in V-bottom 384-well plates. The final assay volume was 30 μl prepared from 15 μl additions of enzyme, substrates (fluoresceinated peptide FL-KRREILSRRP[ps]ERYR-NH2 and ATP) and test compounds in assay buffer (100 mM HEPES pH 7.4, 10 mM MgCl2, 25 mM Beta-Glycerolphosphate, 0.015% Brij35 and 0.25 mM DTT). The reaction was incubated at room temperature for 20 hours and terminated by adding 45 μl of 35 mM EDTA to each sample. The reaction mixture was analyzed on the Caliper LabChip3000 (Caliper, Hopkinton, Mass.) by electrophoretic separation of the unphosphorylated substrate and phosphorylated product. Inhibition data were calculated by comparison of the no enzyme control reactions for 100% inhibition and vehicle-only reactions for 0% inhibition. The final concentration of reagents in the assay were 250 pM GSK3α or GSK3β, 20 uM ATP, 1.5 uM FL-KRREILSRRP[ps]ERYR-NH2, and 1.6% DMSO. Dose response curves were generated to determine the concentration required to inhibit 50% of the kinase activity (IC50). Compounds were dissolved at 10 mM in dimethylsulfoxide (DMSO) and evaluated at eleven concentrations. IC50 values were derived by non-linear regression analysis.
Sequence of GSK3β (P49841 whole entry, species assumed): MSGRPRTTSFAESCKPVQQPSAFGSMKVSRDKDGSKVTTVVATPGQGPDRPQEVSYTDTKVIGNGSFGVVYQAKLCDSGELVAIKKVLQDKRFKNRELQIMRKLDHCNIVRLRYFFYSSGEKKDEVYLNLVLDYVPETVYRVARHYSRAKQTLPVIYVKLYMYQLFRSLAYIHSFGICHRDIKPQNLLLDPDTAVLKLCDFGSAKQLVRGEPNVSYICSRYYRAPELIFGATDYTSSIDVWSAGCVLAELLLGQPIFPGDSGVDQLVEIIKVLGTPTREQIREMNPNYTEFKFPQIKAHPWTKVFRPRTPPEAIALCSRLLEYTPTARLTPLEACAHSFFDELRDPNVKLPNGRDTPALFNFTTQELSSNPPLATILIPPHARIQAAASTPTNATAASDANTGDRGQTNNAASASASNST

For another data set, the target named is GSK3α (Homo sapiens, UniProt P49840). Briefly: GSK3α kinase assay (Caliper LabChip3000, fluoresceinated peptide substrate). It counts as biochemical. Conditions: second value of cell; 250 pM enzyme, 20 uM ATP, 20 hours room temperature; read-out: GSK3β/α (nM): GSK3α IC50. How it is done: as §1
Sequence of GSK3α (P49840 whole entry, species assumed): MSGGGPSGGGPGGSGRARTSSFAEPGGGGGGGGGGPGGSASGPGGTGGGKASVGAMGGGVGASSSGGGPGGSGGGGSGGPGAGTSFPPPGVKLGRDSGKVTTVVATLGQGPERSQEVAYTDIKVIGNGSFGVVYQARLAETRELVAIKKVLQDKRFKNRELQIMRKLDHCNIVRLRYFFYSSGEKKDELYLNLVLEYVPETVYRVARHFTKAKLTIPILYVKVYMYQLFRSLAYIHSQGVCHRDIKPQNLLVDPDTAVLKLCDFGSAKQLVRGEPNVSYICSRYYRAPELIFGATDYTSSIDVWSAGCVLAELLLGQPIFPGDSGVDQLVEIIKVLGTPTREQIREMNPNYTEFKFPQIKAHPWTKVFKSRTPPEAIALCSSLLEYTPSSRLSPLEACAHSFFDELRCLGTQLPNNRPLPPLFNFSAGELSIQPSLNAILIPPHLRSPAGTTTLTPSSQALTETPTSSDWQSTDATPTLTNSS
In a further data set the test system is pTau. The data set can be described thus: pTau assay. The class given is cell-based.

`CC1(C)CC=CCN2CCN(CC2)c2cc(F)ncc2NC(=O)c2ccnc(n2)NC1` had a ring closure, isolated yield in data set [1] (from C=CCN1CCN(c2cc(F)ncc2NC(=O)c2ccnc(NCC(C)(C)CC=C)n2)CC1, 18-membered ring, Zhan 1B, 1.5 h, 2 steps) of 34%.
Consider `C[C@@H]1Nc2nccc(n2)C(=O)Nc2cnc(F)cc2N2CCN(CC=CCC1O)CC2` (stereo partly shown), for which the ring closure, isolated yield in data set [1] (from C=CCC(O)[C@H](C)Nc1nccc(C(=O)Nc2cnc(F)cc2N2CCN(CC=C)CC2)n1, 18-membered ring, Zhan 1B, ClCH2CH2Cl, 4.78 mM, 1.5 h) is 29% and 26%.
For `O=C1Nc2cnc(F)cc2N2CCN(CC=CCC(O)CNc3nccc1n3)CC2` (stereo not shown), the ring closure, isolated yield in data set [1] (from C=CCC(O)CNc1nccc(C(=O)Nc2cnc(F)cc2N2CCN(CC=C)CC2)n1, 18-membered ring, Zhan 1B (30 mol%), ClCH2CH2Cl, 5.33 mM, 4.0 h) came to 50%.
Consider `O=C1Nc2cnc(F)cc2N2CCN(CC=CCC3(CC3)CNc3nccc1n3)CC2`, for which the ring closure, isolated yield in data set [1] (from C=CCN1CCN(c2cc(F)ncc2NC(=O)c2ccnc(NCC3(CC=C)CC3)n2)CC1, 18-membered ring, Zhan 1B, ClCH2CH2Cl, 4.73 mM, 2.0 h) was 79%.
Regarding `O=C1Nc2cnc(F)cc2N2CCN(CC=CCCCNc3nccc1n3)CC2`, the ring closure, isolated yield in data set [1] (from C=CCCCNc1nccc(C(=O)Nc2cnc(F)cc2N2CCN(CC=C)CC2)n1, 18-membered ring, Zhan 1B (20 mol%), ClCH2CH2Cl, 5.64 mM, 2.0 h) was found to be 65%.
In data set [1] (from C=CCCCNc1nccc(C(=O)Nc2cnc(F)cc2N2CCOC(C=C)C2)n1, 16-membered ring, Zhan 1B (40 mol%), ClCH2CH2Cl, 5.6 mM, 2.0 h), `O=C1Nc2cnc(F)cc2N2CCOC(C=CCCCNc3nccc1n3)C2` (stereo not shown) registered a ring closure, isolated yield of 46%.
Take `O=C1Nc2cnccc2OCCC=CCCCNc2nccc1n2`: the ring closure, isolated yield in data set [1] (from C=CCCCNc1nccc(C(=O)Nc2cnccc2OCCC=C)n1, 16-membered ring, Zhan 1B (30 mol%), ClCH2CH2Cl, 5.57 mM, 2.0 h) turned out to be 23%.
Turning to `O=C1Nc2cnccc2OCCC=CCNc2nccc1n2` (mixture of isomers) [Example 5, 5-Oxa-3,11-diaza-1(4,2)-pyrimidina-4(3,4)-pyridinacycloundecaphan-8-en-2-one], the ring closure, isolated yield in data set [1] (from C=CCCOc1ccncc1NC(=O)c1ccnc(NCC=C)n1, 14-membered ring, Zhan 1B (50 mol%), ClCH2CH2Cl, 4.55 mM, 2.0 h) stood at 34%. Also, the figures for the IC50 at GSK3β, at GSK3α and in the data set with pTau were 13.5 nM, 12.1 nM and 1500 nM, respectively.
With `O=C1Nc2cnccc2OCCC=CCCNc2nccc1n2` (mixture of isomers) [Example 8, 5-Oxa-3,12-diaza-1(4,2)-pyrimidina-4(3,4)-pyridinacyclododecaphan-8-en-2-one], the ring closure, isolated yield in data set [1] (from C=CCCNc1nccc(C(=O)Nc2cnccc2OCCC=C)n1, 15-membered ring, Zhan 1B (50 mol%), ClCH2CH2Cl, 4.3 mM, 2.0 h) turned out to be 46%. For the same compound, the IC50 at GSK3β is 8.1 nM; on GSK3α it was 8.4 nM; in the data set on pTau, 634 nM.
As for `O=C1Nc2cnc(F)cc2N2CCN(C/C=C/CCCNc3nccc1n3)CC2` (single isomer, unassigned) [Example 23, (E)-2^6-fluoro-3,6-diaza-5(4,2)-pyrimidina-1(1,4)-piperazina-2(4,3)-pyridinacyclododecaphan-10-en-4-one], the IC50 on GSK3β was found to be 0.5 nM; at GSK3α, 0.6 nM; in the data set with pTau, 18 nM.
The like results for `C[C@@H]1Nc2nccc(n2)C(=O)Nc2cnc(F)cc2N2CCN(C/C=C/CC1O)CC2` (single isomer, unassigned) [Example 36] were, in that order, 10.8 nM, 18.5 nM and 202 nM.
The corresponding values for `O=C1Nc2cnccc2OCCCCCNc2nccc1n2` [Example 6, 5-Oxa-3,11-diaza-1(4,2)-pyrimidina-4(3,4)-pyridinacycloundecaphan-2-one] are 28.6 nM, 21.2 nM and 910 nM.
The corresponding values for `O=C1Nc2cnccc2OCCCCCCNc2nccc1n2` [Example 9, 5-Oxa-3,12-diaza-1(4,2)-pyrimidina-4(3,4)-pyridinacyclododecaphan-2-one] are 5.2 nM, 6.2 nM and 146 nM.
For the compound `O=C1Nc2cnc(F)cc2N2CCOC(/C=C/CCCNc3nccc1n3)C2` (stereo not shown) [Example 14, (E)-2^6-Fluoro-3,6-diaza-1(4,2)-morpholina-5(4,2)-pyrimidina-2(4,3)-pyridinacycloundecaphan-10-en-4-one], the IC50 at GSK3β came out at 12.5 nM; at GSK3α, 20.2 nM; with pTau, 627 nM.
The corresponding values for `O=C1Nc2cnc(F)cc2N2CCOC(CCCCCNc3nccc1n3)C2` (stereo not shown) [Example 15, 2^6-Fluoro-3,6-diaza-1(4,2)-morphohna-5(4,2)-pyrimidina-2(4,3)-pyridinacycloundecaphan-4-one] are 22.3 nM, 34 nM and 1890 nM.
The corresponding values for `O=C1Nc2cnccc2OCC/C=C/CCCNc2nccc1n2` [Example 17, (E)-5-Oxa-3,13-diaza-1(4,2)-pyrimidina-4(3,4)-pyridinacyclotridecaphan-8-en-2-one] are 1.3 nM, 3.3 nM and 92 nM.
The corresponding values for `O=C1Nc2cnccc2OCCCCCCCNc2nccc1n2` [Example 18, 5-Oxa-3,13-diaza-1(4,2)-pyrimidina-4(3,4)-pyridinacyclotridecaphan-2-one] are 3.1 nM, 6.7 nM and 262 nM.
For the compound `O=C1Nc2cnc(F)cc2N2CCN(CCCCCCNc3nccc1n3)CC2` [Example 24, 2^6-Fluoro-3,6-diaza-5(4,2)-pyrimidina-1(1,4)-piperazina-2(4,3)-pyridinacyclododecaphan-4-one], the figures for the IC50 on GSK3β, on GSK3α and with pTau were 2 nM, 3.6 nM and 124 nM, respectively.
Regarding `O=C1Nc2cnc(F)cc2N2CCN(C/C=C/CC(O)CNc3nccc1n3)CC2` (stereo not shown) [Example 26, (E)-2^6-fluoro-8-hydroxy-3,6-diaza-5(4,2)-pyrimidina-1(1,4)-piperazina-2(4,3)-pyridinacyclododecaphan-10-en-4-one], the IC50 stood at 3.3 nM on GSK3β, 4.3 nM at GSK3α and 164 nM with pTau.
The corresponding values for `O=C1Nc2cnc(F)cc2N2CCN(C/C=C\CCC(O)CNc3nccc1n3)CC2` (stereo not shown) [Example 29, (Z)-2^6-fluoro-8-hydroxy-3,6-diaza-5(4,2)-pyrimidina-1(1,4)-piperazina-2(4,3)-pyridinacyclotridecaphan-11-en-4-one] are 29 nM, 30.4 nM and 2660 nM.
`O=C1Nc2cnc(F)cc2N2CCN(C/C=C/CC(F)CNc3nccc1n3)CC2` (stereo not shown) [Example 30, (E)-2^6,8-Difluoro-3,6-diaza-5(4,2)-pyrimidina-1(1,4)-piperazina-2(4,3)-pyridinacyclododecaphan-10-en-4-one]: the figures for the IC50 on GSK3α and in the data set with pTau were 15.5 nM and 178 nM, respectively.
On to `CC1(C)C/C=C/CN2CCN(CC2)c2cc(F)ncc2NC(=O)c2ccnc(n2)NC1` [Example 32, (E)-2^6-Fluoro-8,8-dimethyl-3,6-diaza-5(4,2)-pyrimidina-1(1,4)-piperazina-2(4,3)-pyridinacyclododecaphan-10-en-4-one], for which the IC50 on GSK3α amounted to 2 nM; in the data set on pTau, 80 nM.
Take `C[C@@H]1Nc2nccc(n2)C(=O)Nc2cnc(F)cc2N2CCN(C/C=C/C[C@@H]1O)CC2` [Example 37, (7S,8S,E)-2^6-fluoro-8-hydroxy-7-methyl-3,6-diaza-5(4,2)-pyrimidina-1(1,4)-piperazina-2(4,3)-pyridinacyclododecaphan-10-en-4-one]: the IC50 on GSK3β is 7.3 nM; at GSK3α, 17 nM; with pTau it was 404 nM.
The like results for `CC1(O)C/C=C/CN2CCN(CC2)c2cc(F)ncc2NC(=O)c2ccnc(n2)NC1` (stereo not shown) [Example 39, (E)-2^6-Fluoro-8-hydroxy-8-methyl-3,6-diaza-5(4,2)-pyrimidina-1(1,4)-piperazina-2(4,3)-pyridinacyclododecaphan-10-en-4-one] were, in that order, 4.1 nM, 8 nM and 372 nM.
`CC1(O)CCCCCOc2ccncc2NC(=O)c2ccnc(n2)NC1` (stereo not shown) [Example 42, 11-Hydroxy-11-methyl-5-oxa-3,13-diaza-1(4,2)-pyrimidina-4(3,4)-pyridinacyclotridecaphan-2-one]: the IC50 came to 1.4 nM on GSK3β, 3.2 nM at GSK3α and 96 nM in the data set with pTau.
The corresponding values for `O=C1Nc2cnc(F)cc2N2CCN(C/C=C\CC3(CC3)CNc3nccc1n3)CC2` [Example 44, (Z)-6′-fluorospiro[cyclopropane-1,8′-3,6-diaza-5(4,2)-pyrimidina-1(1,4)-piperazina-2(4,3)-pyridinacyclododecaphanen]-10′-en-4′-one] are 12.5 nM, 21.1 nM and 1640 nM.
